Results published in US8541460B2, “PDK-1/Akt signaling inhibitors” (The Ohio State University, priority 2003, dated 2013).

Assays:
[1] = tested on: sixty human tumor cell lines; assay: NCI DTP screen, means over sixty human tumor cell lines; format: cell-based; conditions: two-day treatment
Procedure: (§1) Screening of compounds 70 and 71 against several cancer cell lines The human tumor cell lines of the cancer screening panel are grown in RPMI 1640 medium containing 5% fetal bovine serum and 2 mM L-glutamine. For a typical screening experiment, cells are inoculated into 96 well microtiter plates in 100 μL at plating densities ranging from 5,000 to 40,000 cells/well depending on the doubling time of individual cell lines. After cell inoculation, the microtiter plates are incubated at 37° C., 5% CO2, 95% air and 100% relative humidity for 24 h prior to addition of experimental drugs.
(§2) After 24 h, two plates of each cell line are fixed in situ with TCA, to represent a measurement of the cell population for each cell line at the time of drug addition (Tz). Experimental drugs are solubilized in dimethyl sulfoxide at 400-fold the desired final maximum test concentration and stored frozen prior to use. At the time of drug addition, an aliquot of frozen concentrate is thawed and diluted to twice the desired final maximum test concentration with complete medium containing 50 μg/ml gentamicin. Additional four, 10-fold or ½ log serial dilutions are made to provide a total of five drug concentrations plus control. Aliquots of 100 μl of these different drug dilutions are added to the appropriate microtiter wells already containing 100 μl of medium, resulting in the required final drug concentrations.
Following drug addition, the plates are incubated for an additional 48 h at 37° C., 5% CO2, 95% air, and 100% relative humidity. For adherent cells, the assay is terminated by the addition of cold TCA. Cells are fixed in situ by the gentle addition of 50 μl of cold 50% (w/v) TCA (final concentration, 10% TCA) and incubated for 60 minutes at 4° C. […] Bound stain is subsequently solubilized with 10 mM trizma base, and the absorbance is read on an automated plate reader at a wavelength of 515 nm. […] Using the seven absorbance measurements [time zero, (Tz), control growth, (C), and test growth in the presence of drug at the five concentration levels (Ti)], the percentage growth is calculated at each of the drug concentrations levels. Percentage growth inhibition is calculated as: [(Ti−Tz)/(C−Tz)]×100 for concentrations for which Ti>/=Tz [(Ti−Tz)/Tz]×100 for concentrations for which Ti<Tz
Three dose response parameters are calculated for each experimental agent. […] The drug concentration resulting in total growth inhibition (TGI) is calculated from Ti=Tz. […] Values are calculated for each of these three parameters if the level of activity is reached; however, if the effect is not reached or is exceeded, the value for that parameter is expressed as greater or less than the maximum or minimum concentration tested. […]

OVCAR-5 = assay: NCI DTP cell line screen (SRB), Ovarian Cancer; format: cell-based
Procedure: as §1, §2
(§3) Following drug addition, the plates are incubated for an additional 48 h at 37° C., 5% CO2, 95% air, and 100% relative humidity. For adherent cells, the assay is terminated by the addition of cold TCA. Cells are fixed in situ by the gentle addition of 50 μl of cold 50% (w/v) TCA (final concentration, 10% TCA) and incubated for 60 minutes at 4° C. The supernatant is discarded, and the plates are washed five times with tap water and air dried. Sulforhodamine B (SRB) solution (100 μl) at 0.4% (w/v) in 1% acetic acid is added to each well, and plates are incubated for 10 minutes at room temperature. After staining, unbound dye is removed by washing five times with 1% acetic acid and the plates are air dried. Bound stain is subsequently solubilized with 10 mM trizma base, and the absorbance is read on an automated plate reader at a wavelength of 515 nm. For suspension cells, the methodology is the same except that the assay is terminated by fixing settled cells at the bottom of the wells by gently adding 50 μl of 80% TCA (final concentration, 16% TCA). Using the seven absorbance measurements [time zero, (Tz), control growth, (C), and test growth in the presence of drug at the five concentration levels (Ti)], the percentage growth is calculated at each of the drug concentrations levels. Percentage growth inhibition is calculated as: [(Ti−Tz)/(C−Tz)]×100 for concentrations for which Ti>/=Tz [(Ti−Tz)/Tz]×100 for concentrations for which Ti<Tz
(§4) Three dose response parameters are calculated for each experimental agent. […] The drug concentration resulting in total growth inhibition (TGI) is calculated from Ti=Tz. […] Values are calculated for each of these three parameters if the level of activity is reached; however, if the effect is not reached or is exceeded, the value for that parameter is expressed as greater or less than the maximum or minimum concentration tested.
(§5) The methods described were used to test compounds 70 and 71 on a panel of sixty cell lines under a screening service provided by the Developmental Therapeutics Program at the National Institutes of Health. Shown in FIG. 1C are 1, RPMI-8226 leukemia cells; 2; NCI-H322M non-small cell lung cancer cells; 3, HT29 colon cancer cells; 4, U251 CNS cancer cells; 5, SK-MEL-28 melanoma cancer cells; 6, SK-OV-3 ovarian cancer cells; 7, RXF 393 renal cancer cells; 8, PC-3 prostate cancer cells; 9, MDA-MB-231 breast cancer cells.

IGROV1 = assay: NCI DTP cell line screen (SRB), Ovarian Cancer; format: cell-based
Procedure: as §1, §2, §3, §4, §5

OVCAR-3 = assay: NCI DTP cell line screen (SRB), Ovarian Cancer; format: cell-based
Procedure: as §1, §2, §3, §4, §5

OVCAR-4 = assay: NCI DTP cell line screen (SRB), Ovarian Cancer; format: cell-based
Procedure: as §1, §2, §3, §4, §5

NCI-H522 = assay: NCI DTP cell line screen (SRB), Non-Small Cell Lung Cancer; format: cell-based, human
Procedure: as §1, §2, §3, §4, §5

NCI-H460 = assay: as above; format: cell-based
Procedure: as §1, §2, §3, §4, §5

EKVX = assay: as above; format: cell-based
Procedure: as §1, §2, §3, §4, §5

HCT-15 = assay: NCI DTP cell line screen (SRB), Colon Cancer; format: cell-based
[2] = read-out: LC50 (the source's name)

## N=C(N)Nc1ccc(-n2nc(C(F)(F)F)cc2-c2ccc3c(ccc4ccccc43)c2)cc1 [Compound 71, 4-[5-(2-Phenanthrenyl)-3-(trifluoromethyl)-1H-pyrazol-1-yl]-phenyl-guanidine]
[1]
  mean TGI among the sixty cell lines: 2900 nM
[1]; read-out: mean GI50 among the sixty cell lines
  GI50: 1200 nM
[1]; read-out: mean LC50 among the sixty cell lines
  CC50: 8500 nM
OVCAR-5
  GI50: 1730 nM
  TGI: 3.11E−06
OVCAR-5; Log10 Concentration −4.0
  Mean Optical Densities: 0.474
  Percent Growth: −8%
OVCAR-5; Log10 Concentration −5.0
  Mean Optical Densities: −0.033
  Percent Growth: −100%
OVCAR-5; Log10 Concentration −6.0
  Mean Optical Densities: 1.559
  Percent Growth: 97%
OVCAR-5; Log10 Concentration −7.0
  Mean Optical Densities: 1.437
  Percent Growth: 86%
OVCAR-5; Log10 Concentration −8.0
  Mean Optical Densities: 1.538
  Percent Growth: 95%
IGROV1
  GI50: 1070 nM
  TGI: 2.26E−06
IGROV1; Log10 Concentration −4.0
  Mean Optical Densities: 0.216
  Percent Growth: −53%
IGROV1; Log10 Concentration −5.0
  Mean Optical Densities: −0.039
  Percent Growth: −100%
IGROV1; Log10 Concentration −6.0
  Mean Optical Densities: 0.806
  Percent Growth: 55%
IGROV1; Log10 Concentration −7.0
  Mean Optical Densities: 0.983
  Percent Growth: 83%
IGROV1; Log10 Concentration −8.0
  Mean Optical Densities: 0.997
  Percent Growth: 85%
IGROV1; [2]
  CC50: 4750 nM
OVCAR-3
  GI50: 1400 nM
  TGI: 2.70E−06
OVCAR-3; Log10 Concentration −4.0
  Mean Optical Densities: 0.131
  Percent Growth: −72%
OVCAR-3; Log10 Concentration −5.0
  Mean Optical Densities: −0.043
  Percent Growth: −100%
OVCAR-3; Log10 Concentration −6.0
  Mean Optical Densities: 0.770
  Percent Growth: 76%
OVCAR-3; Log10 Concentration −7.0
  Mean Optical Densities: 0.792
  Percent Growth: 81%
OVCAR-3; Log10 Concentration −8.0
  Mean Optical Densities: 0.833
  Percent Growth: 91%
OVCAR-3; [2]
  CC50: 5200 nM
OVCAR-4
  GI50: 1310 nM
  TGI: 2.58E−06
OVCAR-4; Log10 Concentration −4.0
  Mean Optical Densities: 0.179
  Percent Growth: −66%
OVCAR-4; Log10 Concentration −5.0
  Mean Optical Densities: −0.001
  Percent Growth: −100%
OVCAR-4; Log10 Concentration −6.0
  Mean Optical Densities: 0.945
  Percent Growth: 70%
OVCAR-4; Log10 Concentration −7.0
  Mean Optical Densities: 0.999
  Percent Growth: 79%
OVCAR-4; Log10 Concentration −8.0
  Mean Optical Densities: 1.011
  Percent Growth: 81%
OVCAR-4; [2]
  CC50: 5080 nM
NCI-H522
  GI50: 1450 nM
NCI-H522; Log10 Concentration −4.0
  Mean Optical Densities: 0.439
  Percent Growth: −43%
NCI-H522; Log10 Concentration −5.0
  Mean Optical Densities: 0.037
  Percent Growth: −95%
NCI-H522; Log10 Concentration −6.0
  Mean Optical Densities: 1.471
  Percent Growth: 78%
NCI-H522; Log10 Concentration −7.0
  Mean Optical Densities: 1.558
  Percent Growth: 87%
NCI-H522; Log10 Concentration −8.0
  Mean Optical Densities: 1.509
  Percent Growth: 82%
NCI-H522; in M (unit assumed)
  TGI: 2.82E−06
NCI-H460
  GI50: 1640 nM
  TGI: 3.04E−06
NCI-H460; Log10 Concentration −4.0
  Mean Optical Densities: 0.257
  Percent Growth: −20%
NCI-H460; Log10 Concentration −5.0
  Mean Optical Densities: 0.011
  Percent Growth: −97%
NCI-H460; Log10 Concentration −6.0
  Mean Optical Densities: 1.650
  Percent Growth: 90%
NCI-H460; Log10 Concentration −7.0
  Mean Optical Densities: 1.658
  Percent Growth: 91%
NCI-H460; Log10 Concentration −8.0
  Mean Optical Densities: 1.654
  Percent Growth: 91%
EKVX
  GI50: 1060 nM
  TGI: 2.24E−06
EKVX; Log10 Concentration −4.0
  Mean Optical Densities: 0.145
  Percent Growth: −74%
EKVX; Log10 Concentration −5.0
  Mean Optical Densities: −0.008
  Percent Growth: −100%
EKVX; Log10 Concentration −6.0
  Mean Optical Densities: 0.711
  Percent Growth: 54%
EKVX; Log10 Concentration −7.0
  Mean Optical Densities: 0.737
  Percent Growth: 63%
EKVX; Log10 Concentration −8.0
  Mean Optical Densities: 0.713
  Percent Growth: 55%
EKVX; [2]
  CC50: 4740 nM
HCT-15
  GI50: 1540 nM
  TGI: 2.87E−06
HCT-15; Log10 Concentration −4.0
  Mean Optical Densities: 0.082
  Percent Growth: −71%
HCT-15; Log10 Concentration −5.0
  Mean Optical Densities: −0.003
  Percent Growth: −100%
HCT-15; Log10 Concentration −6.0
  Mean Optical Densities: 0.797
  Percent Growth: 84%
HCT-15; Log10 Concentration −7.0
  Mean Optical Densities: 0.779
  Percent Growth: 81%
HCT-15; Log10 Concentration −8.0
  Mean Optical Densities: 0.669
  Percent Growth: 64%
HCT-15; [2]
  CC50: 5360 nM
